Laboratory results published in ChEMBL document CHEMBL2073927, “ABCG2 transports sulfated conjugates of steroids and xenobiotics” (J Biol Chem, 2003).
Structures can show the parent of a compound that is named as a salt.

Legend:
[1] = target: T1, Broad substrate specificity ATP-binding cassette transporter ABCG2 (Homo sapiens, UniProt Q9UNQ0); assay: (§1) TP_TRANSPORTER: uptake (vesicle) in membrane vesicles from ABCG2-expressing P388 cells; type: functional, cell membranes; settings: mouse
T1 sequence (Q9UNQ0 whole entry): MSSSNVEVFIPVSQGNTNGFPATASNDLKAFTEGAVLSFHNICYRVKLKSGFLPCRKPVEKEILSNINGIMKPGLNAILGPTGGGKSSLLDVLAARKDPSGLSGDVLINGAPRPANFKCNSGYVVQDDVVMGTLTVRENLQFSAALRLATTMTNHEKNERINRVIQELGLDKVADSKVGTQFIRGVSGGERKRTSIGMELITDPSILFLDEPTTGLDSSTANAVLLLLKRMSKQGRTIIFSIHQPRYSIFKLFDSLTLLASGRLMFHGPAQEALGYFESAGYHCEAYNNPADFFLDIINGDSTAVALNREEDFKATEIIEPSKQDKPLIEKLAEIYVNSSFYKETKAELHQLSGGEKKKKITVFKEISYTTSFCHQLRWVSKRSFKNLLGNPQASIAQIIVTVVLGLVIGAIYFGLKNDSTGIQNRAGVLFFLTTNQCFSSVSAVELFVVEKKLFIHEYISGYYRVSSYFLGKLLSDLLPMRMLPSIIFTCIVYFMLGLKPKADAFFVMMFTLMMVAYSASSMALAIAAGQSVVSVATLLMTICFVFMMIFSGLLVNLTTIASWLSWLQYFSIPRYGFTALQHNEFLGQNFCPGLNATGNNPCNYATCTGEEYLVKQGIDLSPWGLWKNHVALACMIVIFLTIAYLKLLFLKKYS

ABCG2 [2] = target: T2, ABCG2 (Homo sapiens, UniProt Q9UNQ0); assay: TP_TRANSPORTER: inhibition of E1S uptake by 2.4-dinitrophenyl-S-glutathione at a concentration of 80uM in membrane vesicles from ABCG2-expressing P388 cells; type: functional, cell membranes, Membrane vesicle; design: scale not given: the % may be the effect or the level left; settings: mouse, probe E1S, read-out: Activity
T2 sequence (Q9UNQ0 whole entry): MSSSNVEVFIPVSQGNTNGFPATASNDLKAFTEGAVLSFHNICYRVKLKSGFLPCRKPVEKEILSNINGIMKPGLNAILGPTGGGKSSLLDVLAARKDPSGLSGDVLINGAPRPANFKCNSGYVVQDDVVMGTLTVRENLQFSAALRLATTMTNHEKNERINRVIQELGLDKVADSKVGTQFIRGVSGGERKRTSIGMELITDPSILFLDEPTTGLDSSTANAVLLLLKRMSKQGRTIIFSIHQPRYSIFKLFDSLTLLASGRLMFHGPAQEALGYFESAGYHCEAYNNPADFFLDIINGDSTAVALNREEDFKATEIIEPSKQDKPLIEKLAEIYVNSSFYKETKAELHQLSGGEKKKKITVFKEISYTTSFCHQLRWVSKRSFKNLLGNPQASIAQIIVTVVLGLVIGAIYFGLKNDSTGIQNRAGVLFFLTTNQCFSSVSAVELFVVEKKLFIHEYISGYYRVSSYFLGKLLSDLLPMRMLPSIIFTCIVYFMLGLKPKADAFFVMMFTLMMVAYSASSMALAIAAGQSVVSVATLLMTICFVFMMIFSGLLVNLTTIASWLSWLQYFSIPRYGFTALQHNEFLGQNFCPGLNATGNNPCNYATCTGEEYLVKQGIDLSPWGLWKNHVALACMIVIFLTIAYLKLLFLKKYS

ABCG2 [3] = target: T2, ABCG2; assay: TP_TRANSPORTER: inhibition of E1S uptake by 4-Methylumbelliferone glucuronide at a concentration of 500uM in membrane vesicles from ABCG2-expressing P388 cells; type: functional, cell membranes, Membrane vesicle; design: scale not given: the % may be the effect or the level left; settings: mouse, probe E1S, read-out: Activity
ABCG2 [4] = target: T2, ABCG2; assay: TP_TRANSPORTER: inhibition of E1S uptake by Doxorubicin at a concentration of 1000uM in membrane vesicles from ABCG2-expressing P388 cells; type: functional, cell membranes, Membrane vesicle; design: scale not given: the % may be the effect or the level left; settings: mouse, probe E1S, read-out: Activity
[5] = target: T1, Broad substrate specificity ATP-binding cassette transporter ABCG2; assay: TP_TRANSPORTER: inhibition of E1S uptake by 6-hydroxy-5,7-dimetyl-2-metylamino-4-(3-pyridylmethyl) benzothiazole glucronid at a concentration of 250uM in membrane vesicles from ABCG2-expressing P388 cells; type: functional, cell membranes, Membrane vesicle; design: scale not given: the % may be the effect or the level left; settings: mouse, p388, 250 µM
ABCG2 [6] = target: T2, ABCG2; assay: TP_TRANSPORTER: inhibition of E1S uptake by Estrone at a concentration of 200uM in membrane vesicles from ABCG2-expressing P388 cells; type: functional, cell membranes, Membrane vesicle; design: scale not given: the % may be the effect or the level left; settings: mouse, probe E1S, read-out: Activity
ABCG2 [7] = target: T2, ABCG2; assay: TP_TRANSPORTER: inhibition of E1S uptake by Pravastatin at a concentration of 200uM in membrane vesicles from ABCG2-expressing P388 cells; type: functional, cell membranes, Membrane vesicle; design: scale not given: the % may be the effect or the level left; settings: mouse, probe E1S, read-out: Activity
[8] = substrate: CNc1nc2c(Cc3cccnc3)c(C)c(OS(=O)(=O)O)c(C)c2s1; assay: as §1; type: functional, cell membranes
[9] = substrate: C[C@]12CC[C@@H]3c4ccc(OS(=O)(=O)O)cc4CC[C@H]3[C@@H]1CCC2=O; assay: as §1; type: functional, cell membranes
[10] = substrate: Cc1cc(=O)oc2cc(OS(=O)(=O)O)ccc12; assay: TP_TRANSPORTER: uptake (vesicle) in membrane vesicle from ABCG2-expressing mouse lymphoma(P388)cells; type: functional, cell membranes

With Cc1cc(=O)oc2cc(OS(=O)(=O)O)ccc12 the Activity [1] was “substrate []”.

N[C@@H](CCC(=O)N[C@H](CSc1ccc([N+](=O)[O-])cc1[N+](=O)[O-])C(=O)NCC(=O)O)C(=O)O was tested, and the activity at 80 µM (ABCG2 [2]) was 78% and the Activity [1] was “substrate []”.

O=C(O)[C@H]1O[C@@H](OCc2cc(=O)oc3cc(O)ccc23)[C@H](O)[C@@H](O)[C@@H]1O was tested, and the Activity [1] was “substrate []” and the activity at 500 µM (ABCG2 [3]) was 84%.

For COc1cccc2c1C(=O)c1c(O)c3c(c(O)c1C2=O)C[C@@](O)(C(=O)CO)C[C@@H]3O[C@H]1C[C@H](N)[C@H](O)[C@H](C)O1 [DOXORUBICIN], the activity at 1000 µM (ABCG2 [4]) was 72%.

CNc1nc2c(Cc3cccnc3)c(C)c(O[C@@H]3O[C@H](C(=O)O)[C@@H](O)[C@H](O)[C@H]3O)c(C)c2s1 [E3040 GLUCURONIDE] was tested, and the Activity [5] was 76% and the Activity [1] was “substrate []”.

For CNc1nc2c(Cc3cccnc3)c(C)c(OS(=O)(=O)O)c(C)c2s1 [E3040 SULFATE], the Activity [1] was “substrate []”.

With C[C@]12CC[C@@H]3c4ccc(O)cc4CC[C@H]3[C@@H]1CC[C@@H]2O[C@@H]1O[C@H](C(=O)O)[C@@H](O)[C@H](O)[C@H]1O [ESTRADIOL 17B GLUCURONIDE] the Activity [1] was “substrate []”.

For C[C@]12CC[C@@H]3c4ccc(O)cc4CC[C@H]3[C@@H]1CCC2=O [ESTRONE], the activity at 200 µM (ABCG2 [6]) was 56%.

With CN(Cc1cnc2nc(N)nc(N)c2n1)c1ccc(C(=O)N[C@@H](CCC(=O)O)C(=O)O)cc1 [METHOTREXATE] the Activity [1] was “substrate []”.

With C[C@]12CC[C@H](OS(=O)(=O)O)CC1=CC[C@@H]1[C@@H]2CC[C@]2(C)C(=O)CC[C@@H]12 [PRASTERONE SULFURIC ACID] the Activity [1] was “substrate []”.

Work on CC[C@H](C)C(=O)O[C@H]1C[C@H](O)C=C2C=C[C@H](C)[C@H](CC[C@@H](O)C[C@@H](O)CC(=O)O)[C@H]21 [PRAVASTATIN] yielded an activity at 200 µM (ABCG2 [7]) of 76%.

B1: Broad substrate specificity ATP-binding cassette transporter ABCG2 (Homo sapiens) (protein)
chain: MSSSNVEVFIPVSQGNTNGFPATASNDLKAFTEGAVLSFHNICYRVKLKSGFLPCRKPVEKEILSNINGIMKPGLNAILGPTGGGKSSLLDVLAARKDPSGLSGDVLINGAPRPANFKCNSGYVVQDDVVMGTLTVRENLQFSAALRLATTMTNHEKNERINRVIQELGLDKVADSKVGTQFIRGVSGGERKRTSIGMELITDPSILFLDEPTTGLDSSTANAVLLLLKRMSKQGRTIIFSIHQPRYSIFKLFDSLTLLASGRLMFHGPAQEALGYFESAGYHCEAYNNPADFFLDIINGDSTAVALNREEDFKATEIIEPSKQDKPLIEKLAEIYVNSSFYKETKAELHQLSGGEKKKKITVFKEISYTTSFCHQLRWVSKRSFKNLLGNPQASIAQIIVTVVLGLVIGAIYFGLKNDSTGIQNRAGVLFFLTTNQCFSSVSAVELFVVEKKLFIHEYISGYYRVSSYFLGKLLSDLLPMRMLPSIIFTCIVYFMLGLKPKADAFFVMMFTLMMVAYSASSMALAIAAGQSVVSVATLLMTICFVFMMIFSGLLVNLTTIASWLSWLQYFSIPRYGFTALQHNEFLGQNFCPGLNATGNNPCNYATCTGEEYLVKQGIDLSPWGLWKNHVALACMIVIFLTIAYLKLLFLKKYS
Work on B1 yielded a Km [8] of 27 µM, a Km [9] of 17 µM and a Km [10] of 13 µM.
